Test [1] deals with Beet Armyworm (Spodoptera exigua, LAPHEG). In words: Bioassays on Beet Armyworm (BAW), 128-well diet tray assay. The test is classed as in vivo. The following applies: Spodoptera exigua. Summed up:
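Larvae at second instar are exposed on dried, compound-treated diet (50 μg/cm^2, delivered in 90:10 acetone-water) in eight replicate wells. After five to seven days at 25° C., 14:10 light-dark, percent mortality in each well is scored and the eight wells averaged.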

Test [2] concerns Cabbage Looper (Trichoplusia ni, TRIPNI). The test is described as follows: Bioassays on Cabbage Looper (CL), 128-well diet tray assay. As to conditions: Trichoplusia ni. The format is in vivo. Summed up:
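Diet tray, 2nd instar, 1–5 larvae/well; 50 μg/cm^2 compound surface-applied (acetone:water 90:10), dried; 8 wells/treatment; 25° C, 14:10 L:D, 5–7 d; % mortality, mean of 8 wells.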

The mark [3] stands for this setting: Beet Armyworm, rating class, read-out: BAW.
The mark [4] stands for this setting: Cabbage Looper, rating class, read-out: CL.
Setting [5] is: Beet Armyworm, Table ABC / ABC-DP rating, read-out: BAW rating.
The mark [6] stands for this setting: Cabbage Looper, Table ABC / ABC-DP rating, read-out: CL rating.
Where [7] appears, read: Table ABC: Biological Results, species BAW, read-out: BAW.
Where [8] appears, read: Table ABC: Biological Results, species CL, read-out: CL.

SMILES strings stand for the structures. Like-named read-outs stand apart in the source and are kept apart here.

On to `O=C(Nc1ccc(F)c(NC(=O)C(F)(F)F)c1F)c1cc(NC(=O)[C@H]2[C@H](c3cc(Cl)c(Cl)c(Cl)c3)C2(Cl)Cl)ccc1Cl` [F1533, 2-Chloro-5-((1R,3R)-2,2-dichloro-3-(3,4,5-trichlorophenyl)cyclopropane-1-carboxamido)-N-(2,4-difluoro-3-(2,2,2-trifluoroacetamido)phenyl)benzamide], for which the pest or weed control at 50 µg/cm2 in test [1] (setting [3]) and in test [2] (setting [4]) was 50 to 100% throughout.

`CC(C)NC(=O)NNC(=O)c1cc(NC(=O)[C@H]2[C@H](c3cc(Cl)cc(Cl)c3)C2(Cl)Cl)ccc1Cl` (relative stereo) [F2536, trans-2-(2-Chloro-5-(2,2-dichloro-3-(3,5-dichlorophenyl)cyclopropane-1-carboxamido)benzoyl)-N-isopropylhydrazine-1-carboxamide]: the pest or weed control at 50 µg/cm2 in test [1] (setting [5]) and in test [2] (setting [6]) was 50 to 100% throughout.

`CC(C)(C)OC(=O)NNC(=O)c1cc(NC(=O)[C@H]2[C@H](c3cc(Cl)cc(Cl)c3)C2(Cl)Cl)ccc1Cl` (relative stereo) [F2566, trans-tert-butyl 2-(2-chloro-5-(2,2-dichloro-3-(3,5-dichlorophenyl)cyclopropane-1-carboxamido)benzoyl)hydrazine-1-carboxylate]: the mortality at 50 µg/cm2 was 50 to 100% in test [1] (168 h, second instar larvae, 50 μg/cm^2 of test molecule on artificial diet, 25° C., five to seven days, average of eight wells, read-out: BAW % Control (or Mortality) rating) and 50 to 100% in test [2] (168 h, second instar larvae, 50 μg/cm^2 of test molecule on artificial diet, 25° C., five to seven days, average of eight wells, read-out: CL % Control (or Mortality) rating). Besides, the pest or weed control at 50 µg/cm2 in test [1] (setting [5]) and in test [2] (setting [6]) was 50 to 100% each time.

As for `CC(=O)Nc1cc(F)cc(F)c1NC(=O)c1cc(NC(=O)[C@H]2[C@H](c3cc(Cl)cc(Cl)c3)C2(Cl)Cl)ccc1Cl` (relative stereo) [F1633, trans-N-(2-Acetamido-4,6-difluorophenyl)-2-chloro-5-(2,2-dichloro-3-(3,5-dichlorophenyl)cyclopropane-1-carboxamido)benzamide], the pest or weed control at 50 µg/cm2 in test [1] (setting [3]) and in test [2] (setting [4]) was 50 to 100% throughout.

Take `CC(C)(C)OC(=O)Nc1c(F)ccc(NC(=O)c2cc(NC(=O)[C@H]3[C@H](c4cc(F)cc(Br)c4F)C3(Cl)Cl)ccc2Cl)c1F` (relative stereo) [F1095, trans-tert-Butyl-(3-(5-(3-(3-bromo-2,5-difluorophenyl)-2,2-dichlorocyclopropane-1-carboxamido)-2-chlorobenzamido)-2,6-difluorophenyl)carbamate]: the pest or weed control at 50 µg/cm2 in test [1] (setting [7]) and in test [2] (setting [8]) was 50 to 100% throughout.

For `Nc1c(F)c(F)c(F)c(NC(=O)c2cc(NC(=O)[C@H]3[C@H](c4cc(Cl)cc(Cl)c4)C3(Cl)Cl)ccc2Cl)c1F` (relative stereo) [F1022, trans-N-(3-Amino-2,4,5,6-tetrafluorophenyl)-2-chloro-5-(2,2-dichloro-3-(3,5-dichlorophenyl)cyclopropane-1-carboxamido)benzamide], the pest or weed control at 50 µg/cm2 in test [1] (setting [7]) and in test [2] (setting [8]) was 50 to 100% each time.

With `O=C(NCC(F)(F)C(F)(F)F)c1cc(NC(=O)[C@H]2[C@H](c3ccc(F)c(Cl)c3)C2(Cl)Cl)cc(F)c1F` (relative stereo) [F2050, trans-5-(2,2-Dichloro-3-(3-chloro-4-fluorophenyl)cyclopropane-1-carboxamido)-2,3-difluoro-N-(2,2,3,3,3-pentafluoropropyl)benzamide], the pest or weed control at 50 µg/cm2 in test [1] (setting [5]) and in test [2] (setting [6]) was 50 to 100% throughout.

Consider `Cc1cc(NC(=O)[C@H]2[C@H](c3ccc(Cl)c(Cl)c3)C2(Cl)Cl)cc(C(=O)Nc2c(F)ccc(NC(=O)C(F)(F)F)c2F)c1Cl` [F1430, 2-Chloro-5-((1R,3R)-2,2-dichloro-3-(3,4-dichlorophenyl)cyclopropane-1-carboxamido)-N-(2,6-difluoro-3-(2,2,2-trifluoroacetamido)phenyl)-3-methylbenzamide], for which the pest or weed control at 50 µg/cm2 in test [1] (setting [3]) and in test [2] (setting [4]) was 50 to 100% each time.

The values above are taken from patent US20250228239A1, “MOLECULES HAVING PESTICIDAL UTILITY, AND INTERMEDIATES, COMPOSITIONS, AND PROCESSES, RELATED THERETO” (priority 2024, published 2025).
